Assay results from ChEMBL document CHEMBL5653631, “A Potent and Selective ULK1 Inhibitor Suppresses Autophagy and Sensitizes Cancer Cells to Nutrient Stress” (iScience, 2018).
Blank lines part the entries; values can stand above or below the molecule they belong to.

Experiments:
[1] = target: G protein-coupled receptor kinase 5 (Homo sapiens) (UniProt P34947); experiment: Inhibition of human recombinant GPRK5 at 500 nM related to control ULK1
[2] = target: Dual specificity protein kinase CLK4 (Homo sapiens) (UniProt Q9HAZ1); experiment: Inhibition of human recombinant CLK4 at 500 nM in presence of ATP by radiometric assay relative to control
[3] = target: Mitogen-activated protein kinase 11 (Homo sapiens) (UniProt Q15759); experiment: Inhibition of human recombinant p38beta at 500 nM related to control ULK1
[4] = target: Dual specificity tyrosine-phosphorylation-regulated kinase 1B (Homo sapiens) (UniProt Q9Y463); experiment: Inhibition of human recombinant DYRK1B at 500 nM in presence of ATP by radiometric assay relative to control
[5] = target: Tyrosine-protein kinase Lyn (Homo sapiens) (UniProt P07948); experiment: Inhibition of human recombinant LYN at 40 nM related to control ULK1
[6] = target: STE20-like serine/threonine-protein kinase (Homo sapiens) (UniProt Q9H2G2); experiment: Inhibition of human recombinant SLK at 40 nM in presence of ATP by radiometric assay relative to control
[7] = target: T1, Serine/threonine-protein kinase ICK (Homo sapiens) (UniProt Q9UPZ9); experiment: Inhibition of human recombinant ICK at 40 nM related to control ULK1
T1 sequence (whole entry): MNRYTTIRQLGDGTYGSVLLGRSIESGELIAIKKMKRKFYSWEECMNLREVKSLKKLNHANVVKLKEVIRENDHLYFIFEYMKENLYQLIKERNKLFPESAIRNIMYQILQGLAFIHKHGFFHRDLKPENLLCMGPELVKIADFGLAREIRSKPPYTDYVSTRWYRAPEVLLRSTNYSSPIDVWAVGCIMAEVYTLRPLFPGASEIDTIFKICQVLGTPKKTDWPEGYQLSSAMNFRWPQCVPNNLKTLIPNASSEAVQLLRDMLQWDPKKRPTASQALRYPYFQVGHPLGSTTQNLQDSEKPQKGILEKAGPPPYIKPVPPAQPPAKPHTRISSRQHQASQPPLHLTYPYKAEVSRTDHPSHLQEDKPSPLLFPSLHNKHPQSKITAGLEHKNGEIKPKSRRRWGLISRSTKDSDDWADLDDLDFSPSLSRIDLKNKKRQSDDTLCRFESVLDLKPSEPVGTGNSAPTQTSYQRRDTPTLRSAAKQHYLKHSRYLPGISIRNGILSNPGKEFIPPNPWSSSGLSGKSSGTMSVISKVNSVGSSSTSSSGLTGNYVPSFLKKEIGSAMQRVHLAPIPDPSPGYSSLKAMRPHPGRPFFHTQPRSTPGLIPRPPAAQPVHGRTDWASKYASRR

[8] = target: T2, Eukaryotic elongation factor 2 kinase (Homo sapiens) (UniProt O00418); experiment: Inhibition of human recombinant eEF2K at 40 nM in presence of ATP by radiometric assay relative to control
T2 sequence (whole entry): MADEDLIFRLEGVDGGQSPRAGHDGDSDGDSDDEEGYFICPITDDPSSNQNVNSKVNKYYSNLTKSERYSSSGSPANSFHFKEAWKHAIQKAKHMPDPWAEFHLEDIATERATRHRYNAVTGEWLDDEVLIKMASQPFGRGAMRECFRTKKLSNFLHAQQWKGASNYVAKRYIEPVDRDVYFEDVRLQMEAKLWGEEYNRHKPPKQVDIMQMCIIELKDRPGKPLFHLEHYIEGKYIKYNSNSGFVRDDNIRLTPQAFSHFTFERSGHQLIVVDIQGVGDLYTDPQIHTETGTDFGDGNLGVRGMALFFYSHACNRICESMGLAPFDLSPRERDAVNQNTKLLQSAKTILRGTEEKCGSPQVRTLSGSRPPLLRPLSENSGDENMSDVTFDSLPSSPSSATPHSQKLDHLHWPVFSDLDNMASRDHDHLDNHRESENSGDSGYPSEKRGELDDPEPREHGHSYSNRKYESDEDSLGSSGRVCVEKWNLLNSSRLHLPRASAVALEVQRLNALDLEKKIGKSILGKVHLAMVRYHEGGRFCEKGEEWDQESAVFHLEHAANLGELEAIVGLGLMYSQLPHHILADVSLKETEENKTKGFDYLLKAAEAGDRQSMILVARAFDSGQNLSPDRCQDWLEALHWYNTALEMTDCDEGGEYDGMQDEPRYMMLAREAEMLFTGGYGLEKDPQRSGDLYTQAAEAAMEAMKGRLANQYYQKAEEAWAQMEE

[9] = target: G protein-coupled receptor kinase 5 (Homo sapiens) (UniProt P34947); experiment: Inhibition of human recombinant GPRK5 at 40 nM related to control ULK1
[10] = target: Casein kinase II subunit alpha' (Homo sapiens) (UniProt P19784); experiment: Inhibition of human recombinant CK2a2 at 40 nM in presence of ATP by radiometric assay relative to control
[11] = target: Serine/threonine-protein kinase 32B (Homo sapiens) (UniProt Q9NY57); experiment: Inhibition of human recombinant YANK2 at 40 nM in presence of ATP by radiometric assay relative to control
[12] = target: Serine/threonine-protein kinase 32A (Homo sapiens) (UniProt Q8WU08); experiment: Inhibition of human recombinant YANK1 at 15 nM in presence of ATP by radiometric assay relative to control
Serine/threonine-protein kinase 32A (Homo sapiens), sequence (Q8WU08 whole entry): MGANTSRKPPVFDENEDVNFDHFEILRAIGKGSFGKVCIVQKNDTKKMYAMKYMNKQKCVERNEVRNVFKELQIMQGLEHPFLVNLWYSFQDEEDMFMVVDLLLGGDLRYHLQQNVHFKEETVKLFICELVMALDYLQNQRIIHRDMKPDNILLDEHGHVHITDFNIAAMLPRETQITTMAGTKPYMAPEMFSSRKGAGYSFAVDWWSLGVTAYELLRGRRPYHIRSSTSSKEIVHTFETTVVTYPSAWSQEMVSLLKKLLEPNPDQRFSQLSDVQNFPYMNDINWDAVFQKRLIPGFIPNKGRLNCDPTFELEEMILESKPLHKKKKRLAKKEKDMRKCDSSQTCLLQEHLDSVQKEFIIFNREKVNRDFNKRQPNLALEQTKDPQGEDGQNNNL

G protein-coupled receptor kinase 5 (Homo sapiens), sequence (P34947 whole entry, looked up): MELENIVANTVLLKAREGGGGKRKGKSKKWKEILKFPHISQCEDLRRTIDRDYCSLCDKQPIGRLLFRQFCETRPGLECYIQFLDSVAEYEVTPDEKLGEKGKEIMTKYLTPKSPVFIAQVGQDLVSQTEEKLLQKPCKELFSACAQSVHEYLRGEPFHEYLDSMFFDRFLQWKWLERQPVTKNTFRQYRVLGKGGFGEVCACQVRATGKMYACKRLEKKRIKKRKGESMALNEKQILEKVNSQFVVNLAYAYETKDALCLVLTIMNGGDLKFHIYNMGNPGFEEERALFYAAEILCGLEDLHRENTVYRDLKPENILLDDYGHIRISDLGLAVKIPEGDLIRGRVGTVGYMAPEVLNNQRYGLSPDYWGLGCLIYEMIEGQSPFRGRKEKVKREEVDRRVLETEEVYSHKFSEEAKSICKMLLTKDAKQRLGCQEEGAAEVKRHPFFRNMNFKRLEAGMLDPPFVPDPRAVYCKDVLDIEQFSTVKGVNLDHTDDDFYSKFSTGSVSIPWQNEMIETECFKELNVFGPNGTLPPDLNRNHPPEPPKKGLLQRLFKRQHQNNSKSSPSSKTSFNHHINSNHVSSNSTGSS
Tyrosine-protein kinase Lyn (Homo sapiens), sequence (P07948 2-512 limits assumed): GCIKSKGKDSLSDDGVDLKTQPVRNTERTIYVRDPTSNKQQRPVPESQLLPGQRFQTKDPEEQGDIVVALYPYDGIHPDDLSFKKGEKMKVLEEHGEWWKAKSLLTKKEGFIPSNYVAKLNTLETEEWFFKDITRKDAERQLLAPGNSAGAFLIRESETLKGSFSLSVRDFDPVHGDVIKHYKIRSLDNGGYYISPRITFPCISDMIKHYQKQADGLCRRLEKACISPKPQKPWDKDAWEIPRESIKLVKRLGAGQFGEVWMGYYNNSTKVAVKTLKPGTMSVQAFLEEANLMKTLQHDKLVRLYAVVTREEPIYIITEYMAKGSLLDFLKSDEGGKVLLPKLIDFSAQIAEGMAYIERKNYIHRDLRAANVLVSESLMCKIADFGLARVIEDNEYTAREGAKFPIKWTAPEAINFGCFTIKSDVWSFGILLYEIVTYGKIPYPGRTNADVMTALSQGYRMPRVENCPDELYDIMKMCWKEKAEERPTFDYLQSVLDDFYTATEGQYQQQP
STE20-like serine/threonine-protein kinase (Homo sapiens), sequence (Q9H2G2 whole entry, looked up): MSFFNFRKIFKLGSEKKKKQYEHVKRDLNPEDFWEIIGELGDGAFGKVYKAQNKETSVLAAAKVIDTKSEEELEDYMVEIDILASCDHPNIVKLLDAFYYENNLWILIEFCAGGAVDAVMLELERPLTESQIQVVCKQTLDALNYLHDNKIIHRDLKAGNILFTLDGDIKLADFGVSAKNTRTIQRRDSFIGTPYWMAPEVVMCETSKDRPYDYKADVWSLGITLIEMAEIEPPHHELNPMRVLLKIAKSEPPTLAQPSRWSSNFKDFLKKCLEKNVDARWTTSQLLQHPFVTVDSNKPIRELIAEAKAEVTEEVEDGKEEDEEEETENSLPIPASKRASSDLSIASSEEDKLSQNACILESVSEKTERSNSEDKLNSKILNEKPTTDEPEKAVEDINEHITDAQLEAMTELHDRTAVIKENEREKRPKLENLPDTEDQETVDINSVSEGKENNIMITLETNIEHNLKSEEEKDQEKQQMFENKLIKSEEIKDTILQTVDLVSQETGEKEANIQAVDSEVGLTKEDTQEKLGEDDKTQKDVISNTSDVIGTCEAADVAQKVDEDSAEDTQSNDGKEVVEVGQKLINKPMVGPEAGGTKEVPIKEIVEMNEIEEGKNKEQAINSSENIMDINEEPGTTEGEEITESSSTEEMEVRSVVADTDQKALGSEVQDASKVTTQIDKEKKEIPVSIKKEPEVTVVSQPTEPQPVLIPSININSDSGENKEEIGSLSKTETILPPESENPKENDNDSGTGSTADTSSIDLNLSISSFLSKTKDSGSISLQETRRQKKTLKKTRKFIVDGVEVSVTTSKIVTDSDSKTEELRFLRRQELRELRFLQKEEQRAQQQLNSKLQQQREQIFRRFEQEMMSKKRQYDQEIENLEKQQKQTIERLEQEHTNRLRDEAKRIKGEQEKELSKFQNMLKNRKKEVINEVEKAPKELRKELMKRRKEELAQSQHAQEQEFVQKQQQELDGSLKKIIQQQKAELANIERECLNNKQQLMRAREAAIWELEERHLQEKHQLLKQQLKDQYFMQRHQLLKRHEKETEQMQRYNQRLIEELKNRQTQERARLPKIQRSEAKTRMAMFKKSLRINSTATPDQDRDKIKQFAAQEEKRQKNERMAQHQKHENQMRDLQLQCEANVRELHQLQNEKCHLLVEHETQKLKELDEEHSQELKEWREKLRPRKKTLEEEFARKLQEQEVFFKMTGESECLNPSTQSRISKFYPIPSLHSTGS
Mitogen-activated protein kinase 11 (Homo sapiens), sequence (Q15759 whole entry): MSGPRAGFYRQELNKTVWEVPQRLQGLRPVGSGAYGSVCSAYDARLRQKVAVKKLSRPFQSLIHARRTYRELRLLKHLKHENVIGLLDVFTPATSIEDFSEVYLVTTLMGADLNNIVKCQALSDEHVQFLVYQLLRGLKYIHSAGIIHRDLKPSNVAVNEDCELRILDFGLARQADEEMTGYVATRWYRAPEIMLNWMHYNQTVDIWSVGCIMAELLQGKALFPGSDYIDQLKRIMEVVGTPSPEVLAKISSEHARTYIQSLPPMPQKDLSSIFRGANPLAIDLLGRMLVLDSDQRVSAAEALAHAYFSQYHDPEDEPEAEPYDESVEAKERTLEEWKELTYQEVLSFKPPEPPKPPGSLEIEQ
Casein kinase II subunit alpha' (Homo sapiens), sequence (P19784 whole entry, looked up): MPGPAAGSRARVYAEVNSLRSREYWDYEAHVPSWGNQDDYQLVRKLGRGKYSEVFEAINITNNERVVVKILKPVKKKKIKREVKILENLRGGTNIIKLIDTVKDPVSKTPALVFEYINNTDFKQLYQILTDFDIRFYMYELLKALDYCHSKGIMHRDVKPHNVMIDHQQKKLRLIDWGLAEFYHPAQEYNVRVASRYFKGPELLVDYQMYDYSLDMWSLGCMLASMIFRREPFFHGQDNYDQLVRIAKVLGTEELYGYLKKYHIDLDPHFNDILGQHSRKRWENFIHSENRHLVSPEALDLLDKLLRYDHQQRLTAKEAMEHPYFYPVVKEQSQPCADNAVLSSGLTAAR
Serine/threonine-protein kinase 32B (Homo sapiens), sequence (Q9NY57 whole entry): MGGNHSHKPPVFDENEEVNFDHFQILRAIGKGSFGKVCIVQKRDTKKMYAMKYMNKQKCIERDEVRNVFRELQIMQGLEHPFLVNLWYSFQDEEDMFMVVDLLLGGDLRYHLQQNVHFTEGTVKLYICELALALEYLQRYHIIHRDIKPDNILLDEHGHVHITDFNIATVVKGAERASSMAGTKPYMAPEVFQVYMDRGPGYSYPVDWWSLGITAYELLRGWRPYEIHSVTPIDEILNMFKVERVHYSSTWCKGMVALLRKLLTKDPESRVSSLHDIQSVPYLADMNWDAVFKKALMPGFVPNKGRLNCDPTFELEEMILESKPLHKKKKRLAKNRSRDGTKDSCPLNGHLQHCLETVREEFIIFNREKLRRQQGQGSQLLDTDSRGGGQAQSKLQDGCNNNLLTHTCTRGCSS
Dual specificity tyrosine-phosphorylation-regulated kinase 1B (Homo sapiens), sequence (Q9Y463 whole entry, looked up): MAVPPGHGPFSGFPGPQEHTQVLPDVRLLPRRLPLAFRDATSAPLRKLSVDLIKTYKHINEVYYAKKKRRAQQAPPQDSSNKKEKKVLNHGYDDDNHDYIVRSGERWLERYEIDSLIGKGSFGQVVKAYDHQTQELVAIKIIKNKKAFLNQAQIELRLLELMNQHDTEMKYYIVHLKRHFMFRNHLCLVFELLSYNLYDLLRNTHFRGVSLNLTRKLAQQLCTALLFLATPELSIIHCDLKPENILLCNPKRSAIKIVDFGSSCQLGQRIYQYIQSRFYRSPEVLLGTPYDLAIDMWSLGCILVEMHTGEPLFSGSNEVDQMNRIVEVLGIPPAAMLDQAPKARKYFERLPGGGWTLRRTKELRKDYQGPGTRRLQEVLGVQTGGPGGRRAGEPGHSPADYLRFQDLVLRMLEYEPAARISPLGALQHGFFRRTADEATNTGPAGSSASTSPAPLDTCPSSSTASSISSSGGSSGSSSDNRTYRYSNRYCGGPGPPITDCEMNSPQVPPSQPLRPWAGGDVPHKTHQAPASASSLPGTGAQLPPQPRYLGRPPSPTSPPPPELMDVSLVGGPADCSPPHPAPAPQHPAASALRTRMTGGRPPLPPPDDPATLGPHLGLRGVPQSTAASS
Dual specificity protein kinase CLK4 (Homo sapiens), sequence (Q9HAZ1 whole entry, looked up): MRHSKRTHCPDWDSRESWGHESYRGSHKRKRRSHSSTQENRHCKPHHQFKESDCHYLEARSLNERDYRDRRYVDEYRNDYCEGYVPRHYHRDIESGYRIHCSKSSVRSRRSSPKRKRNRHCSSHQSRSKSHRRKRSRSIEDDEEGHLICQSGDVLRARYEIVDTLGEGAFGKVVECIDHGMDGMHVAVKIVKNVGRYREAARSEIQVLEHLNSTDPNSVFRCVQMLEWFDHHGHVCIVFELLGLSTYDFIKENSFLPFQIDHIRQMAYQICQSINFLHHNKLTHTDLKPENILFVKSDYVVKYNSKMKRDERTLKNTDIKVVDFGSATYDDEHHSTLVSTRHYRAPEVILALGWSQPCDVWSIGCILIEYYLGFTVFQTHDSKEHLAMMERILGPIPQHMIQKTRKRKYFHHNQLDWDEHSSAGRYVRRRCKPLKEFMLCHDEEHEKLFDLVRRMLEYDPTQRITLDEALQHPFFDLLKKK

fold change (FC) [1]: 0.01
inhibition [2]: 8%
fold change (FC) [3]: 0.03
inhibition [4]: 0%
SMILES: CNC(=O)c1ccccc1Oc1nc(Nc2cc(OC)c(OC)c(OC)c2)ncc1Br

fold change (FC) [5]: 0.25
inhibition [6]: 0%
fold change (FC) [7]: 0
inhibition [8]: 7%
fold change (FC) [9]: 0.01
inhibition [10]: 8%
inhibition [11]: 3%
SMILES: O=C(N[C@@H](C1CC1)C(F)(F)F)c1cc(-c2cnn3cc(-c4ccc(F)cc4)cnc23)cs1

inhibition [12]: 2%
SMILES: CC(C)[C@H](NC(=O)c1cc(-c2cnn3cc(-c4ccc(OCCN5CCCCC5)cc4)cnc23)cs1)C(F)(F)F
